Measurements as given in publication PMC6598542, “Synthesis of a new series of 3-functionalised-1-phenyl-1,2,3-triazole sulfamoylbenzamides as carbonic anhydrase I, II, IV and IX inhibitors” (Journal of Enzyme Inhibition and Medicinal Chemistry, 2019).

Columns and labels:
Experiment in all cases: stopped-flow CO2 hydration
Assay type in all cases: biochemical
[1] = molecular target: T1, hCA IV (Homo sapiens, UniProt P22748)
T1 construct: gene CA4
Summary of the method: (§1)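 Ki values for recombinant human isozymes were derived from a stopped-flow CO2 hydration assay by non-linear least squares with the Cheng-Prusoff equation. After 10 min preincubation with inhibitor at room temperature, reactions ran for 5–10 s at 25 °C in 10 mM Hepes pH 7.4, 0.1 M Na2SO4 or NaClO4 and 0.2 mM Phenol Red (557 nm), with CO2-saturated water as substrate. Values are means of at least three determinations over at least seven inhibitor concentrations down to 0.01 nM.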

[2] = molecular target: T2, hCA II (Homo sapiens, UniProt P00918); conditions: read-out: hCAII
T2 construct: gene CA2; recombinant, cytosolic isoform
Summary of the method: as §1

[3] = molecular target: T3, hCA IX (Homo sapiens, UniProt Q16790)
T3 construct: gene CA9; recombinant, transmembrane isoform
Summary of the method: as §1

[4] = molecular target: T4, hCA I (Homo sapiens, UniProt P00915)
T4 construct: gene CA1; recombinant, cytosolic isoform
Summary of the method: as §1

T1 sequence (P22748 19-284): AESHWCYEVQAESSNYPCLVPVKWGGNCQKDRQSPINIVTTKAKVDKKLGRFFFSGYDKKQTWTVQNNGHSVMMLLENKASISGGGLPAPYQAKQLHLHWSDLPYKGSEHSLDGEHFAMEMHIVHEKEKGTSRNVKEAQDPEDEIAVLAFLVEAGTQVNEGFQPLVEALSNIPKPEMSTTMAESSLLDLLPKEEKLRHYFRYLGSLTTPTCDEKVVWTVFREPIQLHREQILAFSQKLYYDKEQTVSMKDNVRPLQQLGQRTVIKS
T4 sequence (P00915 2-261): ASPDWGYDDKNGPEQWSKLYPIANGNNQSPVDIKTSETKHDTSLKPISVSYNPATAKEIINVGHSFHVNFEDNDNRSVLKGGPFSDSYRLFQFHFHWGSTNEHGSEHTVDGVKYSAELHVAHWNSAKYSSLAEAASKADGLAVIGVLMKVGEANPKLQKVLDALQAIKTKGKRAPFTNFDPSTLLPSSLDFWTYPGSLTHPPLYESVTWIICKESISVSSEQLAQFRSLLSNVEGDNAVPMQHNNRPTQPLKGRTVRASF

SMILES	Ki [1]	Ki [2]	Ki [3]	Ki [4]
NS(=O)(=O)c1cc(C(=O)NCc2cn(-c3cccc(F)c3)nn2)ccc1F [6q, 4-Fluoro-N-((1–(3-fluorophenyl)-1H-1,2,3-triazol-4-yl)methyl)-3-sulfamoylbenzamide]	5310 nM	329 nM	30.8 nM	426 nM
Cc1ccc(-n2cc(CNC(=O)c3ccc(F)c(S(N)(=O)=O)c3)nn2)cc1 [6r, 4-Fluoro-3-sulfamoyl-N-((1-(p-tolyl)-1H-1,2,3-triazol-4-yl)methyl)benzamide]	215 nM	260 nM	67.5 nM	836 nM
N#Cc1cccc(-n2cc(CNC(=O)c3ccc(F)c(S(N)(=O)=O)c3)nn2)c1 [6s, N-((1–(3-cyanophenyl)-1H-1,2,3-triazol-4-yl)methyl)-4-fluoro-3-sulfamoylbenzamide]	3400 nM	402 nM	67.9 nM	696 nM
NS(=O)(=O)c1cc(C(=O)NCc2cn(-c3ccc(Br)cc3)nn2)ccc1F [6t, N-((1–(4-bromophenyl)-1H-1,2,3-triazol-4-yl)methyl)-4-fluoro-3-sulfamoylbenzamide]	515 nM	372 nM	71.5 nM	696 nM
